Laboratory results as given in US20020111274A1, “1-alkyl-3-[1-(substituted phenyl) benzotriazol-6-yl] uracils” (BASF Aktiengesellschaft, priority 2000, published 2002).

Key:
[1] = system: CHEAL Lambsquarters, Common; assay: Postemergence herbicidal evaluation, CHEAL; type: in vivo, Chenopodium album, L.; settings: postemergence spray, rated about two-three weeks after treatment
How it was run: (§1)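 Ratings from greenhouse plants scored about two to three weeks after a foliar spray; data from multiple tests averaged. Seedlings about two weeks old received roughly 0.006–0.400 kg/ha active compound in 80/20 acetone/water with 1.0% methylated seed oil.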

[2] = system: ECHOG Barnyardgrass; assay: Postemergence herbicidal evaluation, ECHOG; type: in vivo, Echinochloa crus-galli, (L.) Beau; settings: postemergence spray, rated about two-three weeks after treatment
How it was run: as §1

[3] = system: GALAP Galium; assay: Preemergence herbicidal evaluation, GALAP; type: in vivo, Galium aparine; settings: preemergence
How it was run: (§2)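 Seeds mixed with potting soil in cups, then sprayed preemergence with aqueous acetone test solution at about 0.013 to 0.800 kg per hectare equivalent. Cups kept under standard greenhouse care; plants rated on a visual scale four to five weeks after treatment.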

[4] = system: IPOHE Morningglory, Ivyleaf; assay: Postemergence herbicidal evaluation, IPOHE; type: in vivo, Ipomoea hederacea, (L.) Jacq.; settings: postemergence spray, rated about two-three weeks after treatment
How it was run: as §1

[5] = system: SETVI Foxtail, Green; assay: Postemergence herbicidal evaluation, SETVI; type: in vivo, Setaria viridis, (L.) Beau; settings: postemergence spray, rated about two-three weeks after treatment
How it was run: as §1

[6] = system: IPOHE Morningglory, Ivyleaf; assay: Preemergence herbicidal evaluation, IPOHE; type: in vivo, Ipomoea hederacea, (L.) Jacq.; settings: preemergence
How it was run: as §2

[7] = system: ZEAMX Corn, Field; assay: Preemergence herbicidal evaluation, ZEAMX; type: in vivo, Zea mays, L. (Sammel-Bezeichnung); settings: preemergence
How it was run: as §2

[8] = system: ABUTH Velvetleaf; assay: Preemergence herbicidal evaluation, ABUTH; type: in vivo, Abutilon theophrasti, Medic.; settings: preemergence
How it was run: as §2

[9] = system: AMBEL Ragweed, Common; assay: Postemergence herbicidal evaluation, AMBEL; type: in vivo, Ambrosia artemisifolia, L.; settings: postemergence spray, rated about two-three weeks after treatment
How it was run: as §1

[10] = system: GLXMAW Soybean, Williams; assay: Preemergence herbicidal evaluation, GLXMAW; type: in vivo, Glycine max, (L.) Merr. cv Williams; settings: preemergence
How it was run: as §2

[11] = system: CASOB Sicklepod; assay: Postemergence herbicidal evaluation, CASOB; type: in vivo, Cassia obtusifolia, L.; settings: postemergence spray, rated about two-three weeks after treatment
How it was run: as §1

[12] = system: ORYSAT Rice, Tebonnet; assay: Postemergence herbicidal evaluation, ORYSAT; type: in vivo, Oryza sativa, (L.); settings: postemergence spray, rated about two-three weeks after treatment
How it was run: as §1

## COC(=O)COc1ccc(C)cc1-n1nnc2cc(F)c(-n3c(=O)cc(C(F)(F)F)n(C)c3=O)cc21 [Example 34]
[1]; 0.008 kg/ha
  Postemergence herbicidal rating CHEAL: 2.0
[1]; 0.016 kg/ha
  Postemergence herbicidal rating CHEAL: 3.0
[1]; 0.032 kg/ha
  Postemergence herbicidal rating CHEAL: 3.0
[1]; 0.062 kg/ha
  Postemergence herbicidal rating CHEAL: 9.0
[2]; 0.008 kg/ha
  Postemergence herbicidal rating ECHCG: 7.0
[2]; 0.016 kg/ha
  Postemergence herbicidal rating ECHCG: 9.0
[2]; 0.032 kg/ha
  Postemergence herbicidal rating ECHCG: 9.0
[2]; 0.062 kg/ha
  Postemergence herbicidal rating ECHCG: 9.0
[3]; rate 0.016 kg/ha
  GALAP herbicidal rating: 0.0
[3]; rate 0.032 kg/ha
  GALAP herbicidal rating: 0.0
[3]; rate 0.062 kg/ha
  GALAP herbicidal rating: 0.0
[3]; rate 0.125 kg/ha
  GALAP herbicidal rating: 7.0
[4]; 0.008 kg/ha
  Postemergence herbicidal rating IPOHE: 9.0
[4]; 0.016 kg/ha
  Postemergence herbicidal rating IPOHE: 9.0
[4]; 0.032 kg/ha
  Postemergence herbicidal rating IPOHE: 9.0
[4]; 0.062 kg/ha
  Postemergence herbicidal rating IPOHE: 9.0
[5]; 0.008 kg/ha
  Postemergence herbicidal rating SETVI: 9.0
[5]; 0.016 kg/ha
  Postemergence herbicidal rating SETVI: 9.0
[5]; 0.032 kg/ha
  Postemergence herbicidal rating SETVI: 9.0
[5]; 0.062 kg/ha
  Postemergence herbicidal rating SETVI: 9.0
[6]; rate 0.032 kg/ha
  IPOHE herbicidal rating: 9.0
[6]; rate 0.062 kg/ha
  IPOHE herbicidal rating: 5.0
[6]; rate 0.125 kg/ha
  IPOHE herbicidal rating: 9.0
[7]; rate 0.016 kg/ha
  ZEAMX herbicidal rating: 0.0
[7]; rate 0.032 kg/ha
  ZEAMX herbicidal rating: 0.5
[7]; rate 0.062 kg/ha
  ZEAMX herbicidal rating: 3.5
[7]; rate 0.125 kg/ha
  ZEAMX herbicidal rating: 4.0
[8]; rate 0.016 kg/ha
  ABUTH herbicidal rating: 9.0
[8]; rate 0.032 kg/ha
  ABUTH herbicidal rating: 9.0
[8]; rate 0.062 kg/ha
  ABUTH herbicidal rating: 9.0
[8]; rate 0.125 kg/ha
  ABUTH herbicidal rating: 9.0
[9]; 0.008 kg/ha
  Postemergence herbicidal rating AMBEL: 0.0
[9]; 0.016 kg/ha
  Postemergence herbicidal rating AMBEL: 3.0
[9]; 0.032 kg/ha
  Postemergence herbicidal rating AMBEL: 9.0
[9]; 0.062 kg/ha
  Postemergence herbicidal rating AMBEL: 9.0
[10]; rate 0.016 kg/ha
  GLXMAW herbicidal rating: 1.0
[10]; rate 0.032 kg/ha
  GLXMAW herbicidal rating: 1.0
[10]; rate 0.062 kg/ha
  GLXMAW herbicidal rating: 1.5
[10]; rate 0.125 kg/ha
  GLXMAW herbicidal rating: 2.0
[11]; 0.008 kg/ha
  Postemergence herbicidal rating CASOB: 0.0
[11]; 0.016 kg/ha
  Postemergence herbicidal rating CASOB: 0.0
[11]; 0.032 kg/ha
  Postemergence herbicidal rating CASOB: 1.0
[11]; 0.062 kg/ha
  Postemergence herbicidal rating CASOB: 5.0
[12]; 0.008 kg/ha
  Postemergence herbicidal rating ORYSAT: 3.0
[12]; 0.016 kg/ha
  Postemergence herbicidal rating ORYSAT: 4.0
[12]; 0.032 kg/ha
  Postemergence herbicidal rating ORYSAT: 6.5
[12]; 0.062 kg/ha
  Postemergence herbicidal rating ORYSAT: 7.5
